According to patent US20020012949A1, “Assay systems for leptin-enhancing agents” (priority 1997, published 2002):

Legend:
[1] = target: T1, GST-SHP1-SH2 (Homo sapiens, UniProt P29350); assay: Binding to GST-SHP1-SH2 by immunoprecipitation and western blot; settings: 200 nM GST-SHP1-SH2, 15 nM phosphopeptide or cytoplasmic domain fusion, TBST, 4° C. overnight
T1 construct: Amino acids 2-221 of SHP1 were cloned as a EcoRI/BglII fragment into pGEX-3X; made in house; host or cells: E. coli
T1 sequence (P29350 2-221): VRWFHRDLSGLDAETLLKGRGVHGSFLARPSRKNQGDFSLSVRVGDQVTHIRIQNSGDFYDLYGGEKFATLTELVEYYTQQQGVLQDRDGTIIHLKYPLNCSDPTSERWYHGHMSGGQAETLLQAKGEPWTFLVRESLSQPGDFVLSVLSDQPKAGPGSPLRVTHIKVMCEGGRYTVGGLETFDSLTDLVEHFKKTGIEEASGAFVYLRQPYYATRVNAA
Experimental: The GST-SHP1-SH2 construct consists of the two SH2 domains of SHP1fused downstream of GST. Amino acids 2-221 of SHP1 were cloned as a EcoRI/BglII fragment into pGEX-3X and expressed in E. coli.
(§1) Bindings were done as immunoprecipitations. Binding concentrations were typically 200 nM GST-SHP2-SH2 or GST-SHP1-SH2 and 15 nM phosphopeptide or cytoplasmic domain fusion in TBST (20 mM Tris, 150 mM NaCl, 0.1% Tween 20, pH 7.4) at 4° C. overnight. After binding either anti-flag mAb, M2, was added (for the phosphopeptide and flag tagged GST-OB-R-cyto) or anti-myc mAb, 9E10, was added (for the myc tagged GST-OB-R-cyto) and the proteins were precipitated with protein G-sepharose. Proteins were then detected on western blots using anti-GST polyclonal antibodies. For the EPOR-cyto-Trx fusion, the protein complexes were precipitated with glutathione-sepharose and the EPOR-cyto-Trx fusion was detected with anti-Trx polyclonal antibodies.

[2] = test system: EPOR-cyto-Trx and GST-SHP1-SH2; assay: Competition of EPOR-cyto-Trx for GST-SHP1-SH2 binding; settings: 4 μM peptide, 15 nM EPOR-cyto-P, 200 nM GST-SHP1-SH2
Experimental: FIG. 10. Competition for GST-SHP1-SH2 or GST-SHP2-SH2 binding to EPOR-cyto-P by a phosphopeptide derived from the sequence surrounding Y401 of the cytoplasmic domain of the EPO receptor. 200 nM GST-SHP1-SH2 or GST-SHP2-SH2, 15 nM EPOR-cyto-P, with and without 4 μM peptide were incubated together. GST-SHP1-SH2 or GST-SHP2-SH2 was immunoprecipitated with Glutathione Sepharose (Pharmacia), and co-precipitating EPOR-cyto-P was visualized with an anti-Trx antibody.
as §1
In this competition the complexes were precipitated with glutathione-sepharose and the EPOR-cyto-Trx was detected by western blot using anti-Trx antibodies. […]

[3] = target: T2, TrkC--OB-R chimera (TOBR) (Homo sapiens, UniProt P48357+Q16288); assay: Immunoprecipitation and western blotting of tyrosine phosphorylation, NT-3-stimulated COS cells expressing TOBR; assay type: cell-based; settings: 50 ng/ml human NT-3 for 15 min
T2 construct: TrkC (amino acids 1 to 458) to the cytoplasmic domain of OB-R (amino acids 865-1165); expressed in transfected cells; host or cells: COS-7
Experimental: The cytoplasmic domain and full-length human OB-R was cloned by PCR using human fetal liver and adipocyte cDNA (Clontech) and cloned into the expression vectors pCMX and pMT21. Chimeric receptors were constructed by fusing the extracellular domain and transmembrane domain of TrkC (amino acids 1 to 458) to the cytoplasmic domain of OB-R (amino acids 865-1165). A triple myc epitope tag was added at the C-terminus of all OB-R constructs (18). Truncation and point mutant constructs were generated by PCR and the sequences of all constructs were verified. Expression constructs were transfected into COS-7 cells using lipofectamine (GIBCO-BRL); 36-48 hours after transfection, cells were starved for either 2 hour,s for chimeric receptors or overnight for full-length receptors prior to stimulation.
Cells were stimulated with 50 ng/ml of human NT-3 for 15 min or 100 ng/ml of human leptin (R&D Systems) for 10 min. Cells were then lysed in a 1% Brij 96 buffer and receptor was immunoprecipitated with anti-myc antibody 9E10 (18) followed by protein G-sepharose (Pharmacia). Unbound lysate was then immunoprecipitated with anti-P-Tyr antibody (UBI, Lake Placid) or agarose-conjugated anti-SHP-2 antibody (Santa Cruz Biotechnology). […] Endogenous STAT3, SHP-2, Jak1 and Jak2 is being detected in all immunoblotting experiments. […]

[4] = target: T3, TOBR (TrkC-OB-R chimeric receptor) (Homo sapiens, UniProt P48357+Q16288); assay: Luciferase reporter gene assay, TrkC-OB-R chimeric receptor TOBR in neuroblastoma (NBFL) cells; assay type: cell-based; settings: NT-3 at 20 ng/ml for 36 hours
T3 construct: TrkC (amino acids 1 to 458) to the cytoplasmic domain of OB-R (amino acids 865-1165); expressed in transfected cells; host or cells: NBFL neuroblastoma cells

[5] = target: T4, TOBRY986F (Homo sapiens, UniProt P48357+Q16288, Y986F); assay: Luciferase reporter gene assay, TrkC-OB-R chimeric receptor TOBRY986F in neuroblastoma (NBFL) cells; assay type: cell-based; settings: NT-3 at 20 ng/ml for 36 hours
T4 construct: TrkC (amino acids 1 to 458) to the cytoplasmic domain of OB-R (amino acids 865-1165); expressed in transfected cells; host or cells: NBFL neuroblastoma cells

[6] = target: T5, GST-OB-R-cyto/3myc and GST-SHP1-SH2 (Homo sapiens, UniProt P29350); assay: Competition for binding of GST-OB-R-cyto/3myc and GST-SHP1-SH2; settings: 4 μM phosphopeptide, 15 nM cytoplasmic domain, 200 nM GST-SHP1-SH2
T5 construct: Amino acids 2-221 of SHP1 were cloned as a EcoRI/BglII fragment into pGEX-3X; made in house; host or cells: E. coli (OB-R-cyto co-expressed with the ELK tyrosine kinase)
T5 sequence (P29350 2-221): T1 sequence (P29350 2-221)
Experimental: (§2) FIG. 9. Competition for GST-SHP1-SH2 or GST-SHP2-SH2 binding to OB-R-cyto-P by a phosphopeptide containing the sequence surrounding Y986 in OB-R. 200 nM GST-SHP1-SH2 or GST-SHP2-SH2, 15 nM OB-R-cyto-P, with and without 4 μM peptide were incubated together. OB-R-cyto-P was immunoprecipitated with an antibody to the myc epitope tag, and co-precipitating GST-SHP1-SH2 or GST-SHP2-SH2 was visualized with an anti-GST antibody.
as §1, with “After binding either anti-flag mAb, M2, was added (for the phosphopeptide and flag tagged GST-OB-R-cyto) or anti-myc mAb, 9E10, was added (for the myc tagged GST-OB-R-cyto) and the proteins were precipitated with protein G-sepharose.” left out
(§3) In this experiment the SH2 domain, the cytoplasmic domain, and the peptide were mixed and allowed to reach equilibrium. The receptor cytoplasmic domain was precipitated with anti-myc mAb and complexed GST-SHP1-SH2 and GST-SHP2-SH2 were detected by western blot with an anti-GST antibody.

[7] = target: T6, GST-OB-R-cyto/3myc and GST-SHP2-SH2 (Homo sapiens, UniProt Q06124); assay: Competition for binding of GST-OB-R-cyto/3myc and GST-SHP2-SH2; settings: 4 μM phosphopeptide, 15 nM cytoplasmic domain, 200 nM GST-SHP2-SH2
T6 construct: The fusion has aa 2-224 of SHP2 cloned as an EcoRI/BamHI fragment into pGEX-3X; made in house; host or cells: E. coli (OB-R-cyto co-expressed with the ELK tyrosine kinase)
T6 sequence (Q06124 2-224): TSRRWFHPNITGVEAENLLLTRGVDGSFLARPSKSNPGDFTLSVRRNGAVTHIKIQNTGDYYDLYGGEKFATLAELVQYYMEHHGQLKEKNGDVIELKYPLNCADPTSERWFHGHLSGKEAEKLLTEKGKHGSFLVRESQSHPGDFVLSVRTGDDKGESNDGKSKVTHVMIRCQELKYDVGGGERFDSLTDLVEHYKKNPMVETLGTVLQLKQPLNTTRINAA
Experimental: as §2
as §1, with “After binding either anti-flag mAb, M2, was added (for the phosphopeptide and flag tagged GST-OB-R-cyto) or anti-myc mAb, 9E10, was added (for the myc tagged GST-OB-R-cyto) and the proteins were precipitated with protein G-sepharose.” left out
as §3

[8] = target: T7, GST-SHP2-SH2 (Homo sapiens, UniProt Q06124); assay: Binding to GST-SHP2-SH2 by immunoprecipitation and western blot; settings: 200 nM GST-SHP2-SH2, 15 nM phosphopeptide or cytoplasmic domain fusion, TBST, 4° C. overnight
T7 construct: The fusion has aa 2-224 of SHP2 cloned as an EcoRI/BamHI fragment into pGEX-3X; made in house; host or cells: E. coli
T7 sequence (Q06124 2-224): T6 sequence (Q06124 2-224)
Text: The GST-SHP2-SH2 construct consists of the two SH2 domains of SHP2fused downstream of glutathione-S-transferase (GST) from Schistosoma japonicum. The fusion has aa 2-224 of SHP2 cloned as an EcoRI/BamHI fragment into pGEX-3X and was expressed in E. coli. The SHP2-SH2-Fc construct consists of the same amino acids as the above fusion fused to human IgG-Fc as a BlpI/SrfI fragment in pMT21 and was expressed in COS-7 cells.
as §1

CPHLKp-YLYLVVSDDYKDDDDK [EPOR phosphopeptide]
binding to GST-SHP1-SH2 [1]: bound
binding to GST-SHP1-SH2 ([1]; listed as synthetic phosphopeptide from EPOR): Very poor binding
competition of EPOR-cyto-Trx for GST-SHP1-SH2 binding [2]: a small amount of competition

NT-3: neurotrophin-3, surrogate ligand used to activate the TrkC-OB-R chimeric receptors
tyrosine phosphorylation of TOBR and downstream signaling molecules [3]: resulted in ligand-dependent tyrosine phosphorylation
increase in luciferase activity [4]: ~8 fold
increase in luciferase activity [5]: ~45 fold

QPFVKp-YATLISNDYKDDDDK [OB-R phosphopeptide]
binding to GST-SHP1-SH2 [1]: bound
competition for binding of GST-OB-R-cyto/3myc and GST-SHP1-SH2 [6]: no competition
competition for binding of GST-OB-R-cyto/3myc and GST-SHP2-SH2 [7]: no competition
competition of EPOR-cyto-Trx for GST-SHP1-SH2 binding [2]: a small amount of competition
binding to GST-SHP2-SH2 [8]: bound specifically
